# From US10562843B2 (The United States of America, as represented by the …, priority 2006, dated 2020)
# Counter-ions that a name gives are not always drawn. Like-named read-outs stand apart in the source and are kept apart here.
# What was measured:
# [1] = test system: single ventricular myocytes; experiment: Cardiomyocyte contractility, single dose, with and without ICI 118,551; type: cell-based
# Description: In these studies, the contraction amplitude indexed by electrical pacing induced shortening of cell length was measured in single ventricular myocytes before and after exposure to a single dose of the test compounds.
# [2] = target: human β2-AR (Homo sapiens, UniProt P07550)
# [3] = IV 5 mg/kg; for Average plasma concentration: average of rats
# [4] = test system: freshly isolated adult rat cardiomyocytes; experiment: Cardiomyocyte contractility, dose-response; type: cell-based; settings: for maximum contractile response: 10^−8 to 10^−5 M; for EC50: contractility dose-response
# Description: All studies were performed within 8 hours of cell isolation.
# The cells were placed on the stage of an inverted microscope (Zeiss model IM-35, Zeiss, Thornwood, N.Y.), perfused with the HEPES-buffered solution at a flow rate of 1.8 mL/minutes, and electrically stimulated at 0.5 Hz at 23° C. Cell length was monitored by an optical edge-tracking method using a photodiode array (Model 1024 SAQ, Reticon, Boston, Mass.) with a 3 ms time resolution. Cell contraction was measured by the percent shortening of cell length following electrical stimulation.
# [5] = in vivo; settings: male, Sprague-Dawley, rat, plasma, iv, 5 mg/kg
# [6] = Average plasma concentration, average of rats, IV 5 mg/kg
# [7] = Individual plasma concentration, individual rat, IV 5 mg/kg
# Chain of human β2-AR (P07550 whole entry): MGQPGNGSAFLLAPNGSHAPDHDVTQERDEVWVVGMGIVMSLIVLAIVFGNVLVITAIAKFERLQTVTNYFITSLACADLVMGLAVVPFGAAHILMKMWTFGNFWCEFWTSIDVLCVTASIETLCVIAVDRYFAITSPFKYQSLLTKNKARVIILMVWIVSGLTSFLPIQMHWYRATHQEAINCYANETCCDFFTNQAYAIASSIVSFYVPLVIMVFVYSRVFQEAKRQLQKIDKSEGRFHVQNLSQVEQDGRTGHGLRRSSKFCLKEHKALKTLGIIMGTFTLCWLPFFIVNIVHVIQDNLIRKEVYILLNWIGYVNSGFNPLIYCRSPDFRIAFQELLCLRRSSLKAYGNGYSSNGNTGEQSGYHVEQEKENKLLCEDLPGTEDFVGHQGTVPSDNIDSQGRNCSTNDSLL
compound,measurement,setting,value
"C[C@H](Cc1cccc2ccccc12)NC[C@H](O)c1cc(O)cc(O)c1.O=C(O)/C=C/C(=O)O [(R,R)-5, (R,R)-(−)-5-{1-hydroxy-2-[1-methyl-2-(1-naphthyl)ethylamino]ethyl}-1,3-benzenediol fumarate]",concentration eliciting maximum effect,[1],0.1 µM
same,Ki β1/Ki β2,[2],14
"C[C@@H](Cc1cccc2ccccc12)NC[C@H](O)c1cc(O)cc(O)c1.O=C(O)/C=C/C(=O)O [(R,S)-5, (R,S)-(−)-5-{1-hydroxy-2-[1-methyl-2-(1-naphthyl)ethylamino]ethyl}-1,3-benzenediol fumarate]","systemic exposure (AUC) and clearance compared to (R,R)-fenoterol",[3]; rat,significantly higher systemic exposure (AUC) and longer clearance
same,concentration eliciting maximum effect,[1],0.1 µM
same,Ki β1/Ki β2,[2],46
"C[C@H](Cc1ccc(O)cc1)NC[C@H](O)c1cc(O)cc(O)c1 [(R,R)-1, (R,R)-(−)-Fenoterol]",maximum contractile response,[4],306±11.8 % resting cell length
same,EC50,[4],−7.1±0.2 log [M]
same,Average plasma concentration,[3]; 5 min,1.34 µg/mL
same,Average plasma concentration,[3]; 15 min,0.36 µg/mL
same,Average plasma concentration,[3]; 30 min,0.34 µg/mL
same,Average plasma concentration,[3]; 60 min,0.05 µg/mL
same,Average plasma concentration,[3]; 120 min,0.02 µg/mL
same,Average plasma concentration,[3]; 240 min,0.01 µg/mL
same,Average plasma concentration,[3]; 300 min,0.005 µg/mL
same,Average plasma concentration,[3]; 360 min,0.06 µg/mL
same,AUC,"[3]; rat, two-compartment open model",29.6861 µg·min/mL
"CC(Cc1ccc(O)cc1)NCC(O)c1ccc(O)c(O)c1 (racemic) [(±)-fenoterol, 5-[1-hydroxy-2[[2-(4-hydroxyphenyl)-1-methylethyl]-amino]ethyl]1,2-benzenediol, reference compound]",maximum contractile response,[4],265±11.6 % resting cell length
same,EC50,"[4]; Rattus norvegicus, Cardiomyocyte, read-out: EC50 (converted)",100 nM
"C[C@@H](Cc1ccc(O)cc1)NC[C@@H](O)c1cc(O)cc(O)c1 [(S,S)-1, (S,S)-(+)-Fenoterol]",inotropic effect,[4],only a minor positive inotropic effect
same,contractile response,"[1]; single dose, ICI 118,551 10^−7 mol/L",no observed pharmacological effect
"C[C@H](Cc1cccc2ccccc12)NC[C@@H](O)c1cc(O)cc(O)c1.O=C(O)/C=C/C(=O)O (racemic) [(S,R)-5, (S,R)-(+)-5-{1-hydroxy-2-[1-methyl-2-(1-naphthyl)ethylamino]ethyl}-1,3-benzenediol fumarate]",Ki β1/Ki β2,[2],19
"COc1ccc(C[C@@H](C)NC[C@H](O)c2cc(O)cc(O)c2)cc1 [(R,R)-2, (R,R)-(−)-1-p-Methoxyphenyl-2-(β-3′,5′-dihydroxy-phenyl-β-oxy)ethylamino-propane Fumarate]","systemic exposure (AUC) and clearance compared to (R,R)-fenoterol",[3]; rat,significantly higher systemic exposure (AUC) and longer clearance
same,AUC,[5],1600 ng·h/mL
same,Vd,[5],2.19 L
same,clearance,[5],15.4 mL/min
same,half-life,[5],13.2 min
same,concentration at 5 min,[5]; [6],2120 ng/mL
same,concentration at 15 min,[5]; [6],580 ng/mL
same,concentration at 30 min,[5]; [6],410 ng/mL
same,concentration at 60 min,[5]; [6],260 ng/mL
same,concentration at 120 min,[5]; [6],170 ng/mL
same,concentration at 240 min,"[5]; Average plasma concentration, average of rats, IV 5 mg/kg, 240 min",120 ng/mL
same,concentration at 300 min,[5]; [6],70 ng/mL
same,concentration at 360 min,[5]; [6],60 ng/mL
same,concentration at 5 min,[5]; [7],1940 ng/mL
same,concentration at 15 min,[5]; [7],480 ng/mL
same,concentration at 30 min,[5]; [7],310 ng/mL
same,concentration at 60 min,[5]; [7],230 ng/mL
same,concentration at 120 min,[5]; [7],140 ng/mL
same,concentration at 300 min,[5]; [7],60 ng/mL
same,concentration at 360 min,[5]; [7],50 ng/mL
